Measured values taken from the NIST ThermoML archive (doi:10.1021/je050540h).
± gives the expanded uncertainty stated by the source.

Assay: xn = mol fraction of the nth substance listed
Settings: 101 kPa, Liquid

CCC(C)O (stereo unspecified) [butan-2-ol] + C1CCCCC1
Settings | mass density, 293.15 K [kg/m3] | mass density, 298.15 K [kg/m3] | mass density, 303.15 K [kg/m3] | speed of sound, 293.15 K [m/s] | speed of sound, 298.15 K [m/s] | speed of sound, 303.15 K [m/s] | viscosity, 293.15 K [mPa·s] | viscosity, 298.15 K [mPa·s] | viscosity, 303.15 K [mPa·s]
x2 = 0 | 806.84 ± 0.47 | 802.72 ± 0.48 | 798.51 ± 0.48 | 1230 ± 3 | 1212 ± 3 | 1194 ± 3 | 3.623 ± 0.084 | 2.995 ± 0.071 | 2.493 ± 0.06
x2 = 0.0494 | 804.24 ± 0.47 | 800.04 ± 0.48 | 795.77 ± 0.49 | 1228 ± 3 | 1210 ± 3 | 1191 ± 3 | 3.231 ± 0.076 | 2.687 ± 0.064 | 2.251 ± 0.054
x2 = 0.1003 | 801.95 ± 0.47 | 797.69 ± 0.48 | 793.34 ± 0.49 | 1226 ± 3 | 1207 ± 3 | 1188 ± 3 | 2.915 ± 0.068 | 2.444 ± 0.058 | 2.066 ± 0.05
x2 = 0.1969 | 797.77 ± 0.48 | 793.37 ± 0.48 | 788.88 ± 0.49 | 1223 ± 3 | 1204 ± 3 | 1184 ± 3 | 2.227 ± 0.054 | 1.891 ± 0.046 | 1.623 ± 0.039
x2 = 0.3052 | 793.48 ± 0.48 | 788.95 ± 0.48 | 784.34 ± 0.49 | 1222 ± 3 | 1201 ± 3 | 1181 ± 3 | 1.726 ± 0.042 | 1.489 ± 0.036 | 1.294 ± 0.032
x2 = 0.4044 | 789.86 ± 0.48 | 785.24 ± 0.49 | 780.54 ± 0.49 | 1222 ± 3 | 1201 ± 3 | 1179 ± 3 | 1.48 ± 0.036 | 1.299 ± 0.032 | 1.142 ± 0.028
x2 = 0.5004 | 786.73 ± 0.48 | 782.04 ± 0.49 | 777.29 ± 0.49 | 1224 ± 3 | 1202 ± 3 | 1180 ± 3 | 1.315 ± 0.032 | 1.166 ± 0.029 | 1.042 ± 0.026
x2 = 0.6016 | 783.91 ± 0.48 | 779.18 ± 0.49 | 774.41 ± 0.49 | 1228 ± 3 | 1205 ± 3 | 1183 ± 3 | 1.16 ± 0.029 | 1.042 ± 0.026 | 0.942 ± 0.024
x2 = 0.7145 | 781.42 ± 0.48 | 776.68 ± 0.49 | 772.02 ± 0.5 | 1236 ± 3 | 1213 ± 3 | 1189 ± 3 | 1.066 ± 0.026 | 0.968 ± 0.024 | 0.888 ± 0.023
x2 = 0.8067 | 779.85 ± 0.48 | 775.08 ± 0.49 | 770.26 ± 0.5 | 1245 ± 3 | 1222 ± 3 | 1198 ± 3 | 0.98 ± 0.025 | 0.892 ± 0.023 | 0.817 ± 0.021
x2 = 0.9046 | 778.86 ± 0.48 | 774.06 ± 0.49 | 769.22 ± 0.49 | 1259 ± 3 | 1235 ± 3 | 1211 ± 3 | 0.962 ± 0.024 | 0.879 ± 0.022 | 0.806 ± 0.021
x2 = 0.9523 | 778.43 ± 0.48 | 773.65 ± 0.49 | 768.82 ± 0.49 | 1267 ± 3 | 1242 ± 3 | 1218 ± 3 | 0.993 ± 0.025 | 0.908 ± 0.023 | 0.833 ± 0.021

C1CCCCC1 [cyclohexane] + CC(C)O
Settings | mass density, 293.15 K [kg/m3] | mass density, 298.15 K [kg/m3] | mass density, 303.15 K [kg/m3] | speed of sound, 293.15 K [m/s] | speed of sound, 298.15 K [m/s] | speed of sound, 303.15 K [m/s] | viscosity, 293.15 K [mPa·s] | viscosity, 298.15 K [mPa·s] | viscosity, 303.15 K [mPa·s]
x1 = 0.0484 | 783.76 ± 0.48 | 779.5 ± 0.48 | 775.15 ± 0.49 | 1160 ± 3 | 1141 ± 2 | 1123 ± 2 | 2.184 ± 0.051 | 1.883 ± 0.045 | 1.633 ± 0.04
x1 = 0.097 | 782.63 ± 0.48 | 778.29 ± 0.49 | 773.87 ± 0.49 | 1163 ± 3 | 1145 ± 3 | 1126 ± 2 | 1.988 ± 0.047 | 1.722 ± 0.041 | 1.504 ± 0.036
x1 = 0.2006 | 780.51 ± 0.48 | 776.05 ± 0.49 | 771.5 ± 0.5 | 1171 ± 3 | 1152 ± 3 | 1132 ± 2 | 1.651 ± 0.04 | 1.444 ± 0.035 | 1.267 ± 0.031
x1 = 0.3002 | 778.87 ± 0.48 | 774.29 ± 0.49 | 769.62 ± 0.5 | 1180 ± 3 | 1159 ± 3 | 1139 ± 2 | 1.427 ± 0.035 | 1.26 ± 0.031 | 1.112 ± 0.028
x1 = 0.3977 | 777.63 ± 0.48 | 772.95 ± 0.49 | 768.19 ± 0.5 | 1189 ± 3 | 1167 ± 3 | 1146 ± 3 | 1.264 ± 0.031 | 1.119 ± 0.028 | 0.996 ± 0.025
x1 = 0.507 | 776.69 ± 0.49 | 771.92 ± 0.49 | 767.09 ± 0.5 | 1200 ± 3 | 1178 ± 3 | 1155 ± 3 | 1.128 ± 0.028 | 1.008 ± 0.025 | 0.908 ± 0.023
x1 = 0.6046 | 776.15 ± 0.49 | 771.34 ± 0.49 | 766.47 ± 0.5 | 1211 ± 3 | 1188 ± 3 | 1165 ± 3 | 1.025 ± 0.026 | 0.926 ± 0.023 | 0.838 ± 0.021
x1 = 0.7058 | 775.92 ± 0.48 | 771.11 ± 0.49 | 766.23 ± 0.5 | 1223 ± 3 | 1200 ± 3 | 1176 ± 3 | 0.969 ± 0.024 | 0.878 ± 0.022 | 0.798 ± 0.021
x1 = 0.823 | 776.23 ± 0.48 | 771.42 ± 0.49 | 766.56 ± 0.5 | 1240 ± 3 | 1216 ± 3 | 1192 ± 3 | 0.944 ± 0.024 | 0.856 ± 0.022 | 0.786 ± 0.02
x1 = 0.9016 | 776.88 ± 0.48 | 772.09 ± 0.49 | 767.24 ± 0.5 | 1254 ± 3 | 1230 ± 3 | 1206 ± 3 | 0.95 ± 0.024 | 0.87 ± 0.022 | 0.801 ± 0.021
x1 = 0.9521 | 777.52 ± 0.48 | 772.74 ± 0.49 | 767.92 ± 0.5 | 1265 ± 3 | 1240 ± 3 | 1216 ± 3 | 0.962 ± 0.024 | 0.874 ± 0.022 | 0.802 ± 0.021
x1 = 1 | 778.62 ± 0.48 | 773.92 ± 0.49 | 769.19 ± 0.49 | 1279 ± 3 | 1254 ± 3 | 1230 ± 3 | 0.968 ± 0.024 | 0.887 ± 0.022 | 0.816 ± 0.021
